Laboratory results as given in patent publication US9776995B2, “Bicyclic sulfonamide compounds as sodium channel inhibitors” (AMGEN INC., priority 2013, dated 2017).

These compounds were tested against Nav 1.7 (Homo sapiens (Human), UniProt Q15858) (assay: Nav 1.7 in vitro PX assay (PatchXpress whole cell voltage clamp)). Conditions: not given.
Assay type: cell-based
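Note: holding potential set for 20 to 50% inactivation, sodium current evoked by a 20 ms step to −10 mV, peak current inhibition read after compound exposure, 3–5 cells per concentration.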

Chain of Nav 1.7 (Q15858 whole entry): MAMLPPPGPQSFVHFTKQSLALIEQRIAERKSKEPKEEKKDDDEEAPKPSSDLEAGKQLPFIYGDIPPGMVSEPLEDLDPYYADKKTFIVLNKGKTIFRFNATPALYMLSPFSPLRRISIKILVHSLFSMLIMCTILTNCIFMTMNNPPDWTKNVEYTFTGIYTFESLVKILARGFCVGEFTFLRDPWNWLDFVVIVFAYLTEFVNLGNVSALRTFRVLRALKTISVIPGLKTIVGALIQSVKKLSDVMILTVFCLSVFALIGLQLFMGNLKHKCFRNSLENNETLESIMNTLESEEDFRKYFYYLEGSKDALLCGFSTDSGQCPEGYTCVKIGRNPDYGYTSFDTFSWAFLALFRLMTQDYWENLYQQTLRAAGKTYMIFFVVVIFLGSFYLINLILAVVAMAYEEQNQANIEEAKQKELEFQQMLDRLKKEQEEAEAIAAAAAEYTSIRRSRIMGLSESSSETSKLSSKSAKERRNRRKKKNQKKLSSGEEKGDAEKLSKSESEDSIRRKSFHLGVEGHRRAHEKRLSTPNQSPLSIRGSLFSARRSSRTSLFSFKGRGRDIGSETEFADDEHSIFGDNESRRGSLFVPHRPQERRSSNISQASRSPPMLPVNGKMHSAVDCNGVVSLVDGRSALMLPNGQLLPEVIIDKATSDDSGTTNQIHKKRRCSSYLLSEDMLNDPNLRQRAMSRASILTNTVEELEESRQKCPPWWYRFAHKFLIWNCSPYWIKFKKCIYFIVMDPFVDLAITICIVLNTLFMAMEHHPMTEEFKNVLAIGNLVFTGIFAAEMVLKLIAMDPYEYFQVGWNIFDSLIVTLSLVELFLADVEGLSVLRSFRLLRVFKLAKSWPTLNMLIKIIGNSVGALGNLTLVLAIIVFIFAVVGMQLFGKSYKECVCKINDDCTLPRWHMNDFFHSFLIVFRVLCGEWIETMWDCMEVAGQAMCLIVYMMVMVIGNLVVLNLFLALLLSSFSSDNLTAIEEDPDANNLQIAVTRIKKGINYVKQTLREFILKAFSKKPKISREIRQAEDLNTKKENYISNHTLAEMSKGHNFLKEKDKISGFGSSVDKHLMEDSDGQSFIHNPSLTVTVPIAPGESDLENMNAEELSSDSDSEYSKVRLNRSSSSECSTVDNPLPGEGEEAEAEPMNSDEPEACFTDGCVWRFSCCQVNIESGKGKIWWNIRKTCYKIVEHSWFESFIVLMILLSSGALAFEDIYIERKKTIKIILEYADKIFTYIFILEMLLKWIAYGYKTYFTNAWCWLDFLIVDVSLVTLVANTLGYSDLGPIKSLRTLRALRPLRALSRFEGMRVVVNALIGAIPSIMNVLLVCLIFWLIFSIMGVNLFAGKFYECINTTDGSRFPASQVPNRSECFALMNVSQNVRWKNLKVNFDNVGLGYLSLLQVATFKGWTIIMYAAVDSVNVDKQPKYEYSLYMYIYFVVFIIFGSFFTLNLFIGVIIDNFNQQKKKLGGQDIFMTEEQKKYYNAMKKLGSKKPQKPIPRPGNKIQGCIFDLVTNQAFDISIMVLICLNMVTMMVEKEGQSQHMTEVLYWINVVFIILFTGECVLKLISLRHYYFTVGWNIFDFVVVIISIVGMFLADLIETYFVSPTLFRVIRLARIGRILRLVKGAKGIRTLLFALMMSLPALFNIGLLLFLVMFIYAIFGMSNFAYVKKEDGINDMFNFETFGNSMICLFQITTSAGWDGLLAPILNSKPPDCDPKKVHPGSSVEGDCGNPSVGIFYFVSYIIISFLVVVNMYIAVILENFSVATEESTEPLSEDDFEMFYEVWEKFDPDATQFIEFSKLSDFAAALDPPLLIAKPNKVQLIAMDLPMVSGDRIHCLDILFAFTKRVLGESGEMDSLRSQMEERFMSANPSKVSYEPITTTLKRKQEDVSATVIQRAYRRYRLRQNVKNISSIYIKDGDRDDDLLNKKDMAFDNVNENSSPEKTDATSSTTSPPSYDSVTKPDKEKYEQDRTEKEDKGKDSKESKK

Row | SMILES | IC50
1 | COc1cc(-c2ccc(F)c(Cl)c2)c(Cl)cc1-c1ncnc2cc(S(=O)(=O)Nc3ncccn3)ccc12 [Example 329, 4-(2,3′-dichloro-4′-fluoro-5-methoxy-[1,1′-biphenyl]-4-yl)-N-(pyrimidin-2-yl)quinazoline-7-sulfonamide] | 43 nM
2 | COc1cc(-c2cccc(C(F)(F)F)c2)c(C#N)cc1-c1nccc2cc(S(=O)(=O)Nc3ncccn3)ccc12 [Example 373, 1-(2-cyano-5-methoxy-3′-(trifluoromethyl)-[1,1′-biphenyl]-4-yl)-N-(pyrimidin-2-yl)isoquinoline-6-sulfonamide] | 57 nM
3 | COc1cc(-c2cccc(F)c2)c(Cl)cc1-c1ncnc2cc(S(=O)(=O)Nc3cscn3)ccc12 [Example 378, 4-(2-chloro-3′-fluoro-5-methoxy-[1,1′-biphenyl]-4-yl)-N-(thiazol-4-yl)quinazoline-7-sulfonamide 2,2,2-trifluoroacetate] | 231 nM

Same assay, conditions: HEK 293 cells stably transfected with human Nav1.7; PatchXpress; partially inactivated state

Row | SMILES | IC50
4 | COc1cc(-c2cccc(Cl)c2)c(F)cc1-c1ncnc2cc(S(=O)(=O)Nc3ncccn3)ccc12 [Example 315, 4-(3′-chloro-2-fluoro-5-methoxy-4-biphenylyl)-N-2-pyrimidinyl-7-quinazolinesulfonamide] | 48 nM
5 | COc1cc(F)cc(-c2cc(OC)c(-c3nccc4cc(S(=O)(=O)Nc5ccon5)ccc34)cc2F)c1 [Example 316, 1-(2,3′-difluoro-5,5′-dimethoxy-4-biphenylyl)-N-3-isoxazolyl-6-isoquinolinesulfonamide] | 40 nM
6 | COc1cc(-c2cccc(F)c2)c(Cl)cc1-c1cn(C)c(=O)c2cc(S(=O)(=O)Nc3ccon3)ccc12 [Example 328, 4-(2-chloro-3′-fluoro-5-methoxy-[1,1′-biphenyl]-4-yl)-N-(isoxazol-3-yl)-2-methyl-1-oxo-1,2-dihydroisoquinoline-7-sulfonamide trifluoromethanesulfonate] | 68 nM
7 | COc1cc(-c2cccc(F)c2)c(Cl)cc1-c1c(N)cnc2cc(S(=O)(=O)Nc3ccon3)ccc12 [Example 336, 3-amino-4-(2-chloro-3′-fluoro-5-methoxy-[1,1′-biphenyl]-4-yl)-N-(isoxazol-3-yl)quinoline-7-sulfonamide] | 35 nM
8 | COc1cc(-c2cccc(F)c2)c(Cl)cc1-c1ncnc2cc(S(=O)(=O)Nc3ccsn3)ccc12 [Example 361, 4-(2-chloro-3′-fluoro-5-methoxy-[1,1′-biphenyl]-4-yl)-N-(isothiazol-3-yl)quinazoline-7-sulfonamide] | 369 nM
9 | COc1cc(-c2cc(F)cc(C(F)F)c2)c(F)cc1-c1nccc2cc(S(=O)(=O)Nc3ccon3)ccc12 [Example 362, 1-(3′-(difluoromethyl)-2,5′-difluoro-5-methoxy-[1,1′-biphenyl]-4-yl)-N-(isoxazol-3-yl)isoquinoline-6-sulfonamide] | 52 nM
10 | COc1cc(-c2cccc(C(F)(F)F)c2)c(C#N)cc1-c1nccc2cc(S(=O)(=O)Nc3ncc(F)cn3)ccc12 [Example 374, 1-(2-Cyano-5-methoxy-3′-(trifluoromethyl)-[1,1′-biphenyl]-4-yl)-N-(5-fluoropyrimidin-2-yl)isoquinoline-6-sulfonamide] | 94 nM
11 | COc1cc(-c2cccc(Cl)c2)c(F)cc1-c1ncnc2cc(S(=O)(=O)Nc3ncon3)ccc12 [Example 376, 4-(3′-chloro-2-fluoro-5-methoxy-[1,1′-biphenyl]-4-yl)-N-(1,2,4-oxadiazol-3-yl)quinazoline-7-sulfonamide] | 28 nM
12 | COc1cc(-c2cccc(Cl)c2)c(F)cc1-c1ncnc2cc(S(=O)(=O)Nc3ccsn3)ccc12 [Example 377, 4-(3′-Chloro-2-fluoro-5-methoxy-4-biphenylyl)-N-3-isothiazolyl-7-quinazolinesulfonamide] | 90 nM
13 | COc1cc(F)c(-c2cncc(F)c2)cc1-c1nccc2cc(S(=O)(=O)Nc3ccon3)ccc12 [Example 392, 1-(4-fluoro-5-(5-fluoropyridin-3-yl)-2-methoxyphenyl)-N-(isoxazol-3-yl)isoquinoline-6-sulfonamide 2,2,2-trifluoroacetate] | 491 nM
14 | COc1cc(-c2cccc(F)c2)c(Cl)cc1-c1[nH]c(=O)cc2cc(S(=O)(=O)Nc3ccon3)ccc12 [Example 394, 1-(2-chloro-3′-fluoro-5-methoxy-[1,1′-biphenyl]-4-yl)-N-(isoxazol-3-yl)-3-oxo-2,3-dihydroisoquinoline-6-sulfonamide 2,2,2-trifluoroacetate] | 41 nM
15 | COc1cc(-c2cccc(F)c2)c(Cl)cc1-c1c(=O)n(C)cc2cc(S(=O)(=O)Nc3ccon3)ccc12 [Example 402, 4-(2-CHLORO-3′-FLUORO-5-METHOXY-[1,1′-BIPHENYL]-4-YL)-N-(ISOXAZOL-3-YL)-2-METHYL-3-OXO-2,3-DIHYDROISOQUINOLINE-7-SULFONAMIDE] | 39 nM
16 | COc1cc(-c2cccc(Cl)c2)c(Cl)cc1-c1ncnc2cc(S(=O)(=O)Nc3ncccn3)ccc12 [Example 437, 4-(2,3′-DICHLORO-5-METHOXY-[1,1′-BIPHENYL]-4-YL)-N-(PYRIMIDIN-2-YL)QUINAZOLINE-7-SULFONAMIDE] | 72 nM
17 | COc1cc(-c2cc(F)cc(F)c2)c(C)cc1-c1ncnc2cc(S(=O)(=O)Nc3ncccn3)ccc12 [Example 438, 4-(3′,5′-DIFLUORO-5-METHOXY-2-METHYL-[1,1′-BIPHENYL]-4-YL)-N-(PYRIMIDIN-2-YL)QUINAZOLINE-7-SULFONAMIDE] | 94 nM
18 | COc1cc(-c2cccc(F)c2)c(Cl)cc1-c1c(OC)nnc2cc(S(=O)(=O)Nc3ccon3)ccc12 [Example 445, 4-(2-CHLORO-3′-FLUORO-5-METHOXY-[1,1′-BIPHENYL]-4-YL)-N-(ISOXAZOL-3-YL)-3-METHOXYCINNOLINE-7-SULFONAMIDE] | 107 nM
19 | COc1cc(-c2cc(F)cc(Cl)c2)c(F)cc1-c1cn(C)c(=O)c2cc(S(=O)(=O)Nc3ccon3)ccc12 [Example 453, 4-(3′-CHLORO-2,5′-DIFLUORO-5-METHOXY-[1,1′-BIPHENYL]-4-YL)-N-(ISOXAZOL-3-YL)-2-METHYL-1-OXO-1,2-DIHYDROISOQUINOLINE-7-SULFONAMIDE] | 48 nM

Next, values leading:

Row | IC50 | SMILES
20 | 163 nM | COc1cc(-c2cccc(Cl)c2)c(F)cc1-c1c[nH]c(=O)c2cc(S(=O)(=O)Nc3ccon3)ccc12 [Example 343, 4-(3′-chloro-2-fluoro-5-methoxy-[1,1′-biphenyl]-4-yl)-N-(isoxazol-3-yl)-1-oxo-1,2-dihydroisoquinoline-7-sulfonamide]
21 | 49 nM | COc1cc(-c2cccc(Cl)c2)c(F)cc1-c1cn(C)c(=O)c2cc(S(=O)(=O)Nc3ccon3)ccc12 [Example 344, 4-(3′-chloro-2-fluoro-5-methoxy-[1,1′-biphenyl]-4-yl)-N-(isoxazol-3-yl)-2-methyl-1-oxo-1,2-dihydroisoquinoline-7-sulfonamide]
22 | 78 nM | COc1cc(-c2ccc(F)c(Cl)c2)c(C)cc1-c1ncnc2cc(S(=O)(=O)Nc3ncccn3)ccc12 [Example 345, 4-(3′-chloro-4′-fluoro-5-methoxy-2-methyl-[1,1′-biphenyl]-4-yl)-N-(pyrimidin-2-yl)quinazoline-7-sulfonamide]
23 | 14 nM | COc1cc(-c2ccc(Cl)c(C)c2)c(Cl)cc1-c1nccc2cc(S(=O)(=O)Nc3nncs3)ccc12 [Example 379, 1-(2,4′-dichloro-5-methoxy-3′-methyl-4-biphenylyl)-N-1,3,4-thiadiazol-2-yl-6-isoquinolinesulfonamide]
24 | 157 nM | COc1cc(-c2cccc(F)c2)c(F)cc1-c1nc(Cl)cc2cc(S(=O)(=O)Nc3ccon3)ccc12 [Example 393, 3-CHLORO-1-(2,3′-DIFLUORO-5-METHOXY-4-BIPHENYLYL)-N-3-ISOXAZOLYL-6-ISOQUINOLINESULFONAMIDE]
25 | 27 nM | COc1cc(-c2cccc(F)c2)c(Cl)cc1-c1c(=O)[nH]cc2cc(S(=O)(=O)Nc3ccon3)ccc12 [Example 398, 4-(2-CHLORO-3′-FLUORO-5-METHOXY-[1,1′-BIPHENYL]-4-YL)-N-(ISOXAZOL-3-YL)-3-OXO-2,3-DIHYDROISOQUINOLINE-7-SULFONAMIDE]
26 | 28400 nM | COc1cc(F)c(-c2ccccn2)cc1-c1nccc2cc(S(=O)(=O)Nc3ccon3)ccc12 [Example 399]
27 | 613 nM | COc1cc(-c2cccc(F)c2)c(Cl)cc1-c1c(OC)ncc2cc(S(=O)(=O)Nc3ccon3)ccc12 [Example 401, 4-(2-CHLORO-3′-FLUORO-5-METHOXY-[1,1′-BIPHENYL]-4-YL)-N-(ISOXAZOL-3-YL)-3-METHOXYISOQUINOLINE-7-SULFONAMIDE]
28 | 86 nM | COc1cc(-c2cc(F)cc(F)c2)c(Cl)cc1-c1ncnc2cc(S(=O)(=O)Nc3ncccn3)ccc12 [Example 435, 4-(2-CHLORO-3′,5′-DIFLUORO-5-METHOXY-[1,1′-BIPHENYL]-4-YL)-N-(PYRIMIDIN-2-YL)QUINAZOLINE-7-SULFONAMIDE]
29 | 65 nM | COc1cc(-c2cccc(Cl)c2)c(C)cc1-c1ncnc2cc(S(=O)(=O)Nc3ncccn3)ccc12 [Example 440, 4-(3′-CHLORO-5-METHOXY-2-METHYL-[1,1′-BIPHENYL]-4-YL)-N-(PYRIMIDIN-2-YL)QUINAZOLINE-7-SULFONAMIDE]
30 | 28 nM | COc1cc(-c2cccc(F)c2)c(Cl)cc1-c1c(N)nnc2cc(S(=O)(=O)Nc3ccon3)ccc12 [Example 446, 3-AMINO-4-(2-CHLORO-3′-FLUORO-5-METHOXY-[1,1′-BIPHENYL]-4-YL)-N-(ISOXAZOL-3-YL)CINNOLINE-7-SULFONAMIDE]
31 | 77 nM | COc1cc(-c2cc(F)cc(Cl)c2)c(F)cc1-c1c[nH]c(=O)c2cc(S(=O)(=O)Nc3ccon3)ccc12 [Example 451, 4-(3′-CHLORO-2,5′-DIFLUORO-5-METHOXY-[1,1′-BIPHENYL]-4-YL)-N-(ISOXAZOL-3-YL)-1-OXO-1,2-DIHYDROISOQUINOLINE-7-SULFONAMIDE]
32 | 184 nM | COc1cc(-c2ccc(Cl)c(C)c2)c(F)cc1-c1c[nH]c(=O)c2cc(S(=O)(=O)Nc3ccon3)ccc12 [Example 452, 4-(4′-CHLORO-2-FLUORO-5-METHOXY-3′-METHYL-[1,1′-BIPHENYL]-4-YL)-N-(ISOXAZOL-3-YL)-1-OXO-1,2-DIHYDROISOQUINOLINE-7-SULFONAMIDE]
33 | 51 nM | COc1cc(-c2ccc(Cl)c(C)c2)c(F)cc1-c1cn(C)c(=O)c2cc(S(=O)(=O)Nc3ccon3)ccc12 [Example 454, 4-(4′-CHLORO-2-FLUORO-5-METHOXY-3′-METHYL-[1,1′-BIPHENYL]-4-YL)-N-(ISOXAZOL-3-YL)-2-METHYL-1-OXO-1,2-DIHYDROISOQUINOLINE-7-SULFONAMIDE]
